Assay results as given in patent US12389911B2, “Benzimidazole compound or salt thereof, agricultural and horticultural insecticidal and acaricidal agent containing said compound, and method for using same” (NIHON NOHYAKU CO., LTD., priority 2019, dated 2025).

How the values were obtained:
Type in all cases: in vivo
[1] = test system: Diamondback moth (Plutella xylostella); assay: Insecticidal test on diamondback moth (dip of Chinese cabbage seedlings with laid eggs); conditions: 500 ppm, seedlings with laid eggs dipped about 30 seconds, 25° C., 6 days after dip treatment
Source text: Insecticidal Test on Diamondback Moth (Plutella xylostella)
Adults of diamondback moth were released onto Chinese cabbage seedlings and allowed to lay eggs thereon. At 2 days after the release of the adults, the Chinese cabbage seedlings with laid eggs were dipped for about 30 seconds in agrochemical dispersions diluted to 500 ppm, each of which contained a different benzimidazole compound represented by the general formula (1) of the present invention or salt thereof as an active ingredient. After air-dried, the seedlings were kept in a thermostatic chamber at 25° C. At 6 days after the dip treatment, the number of hatched larvae per plot was counted, the corrected mortality rate was calculated according to the formula shown below, and the insecticidal efficacy was evaluated according to the criteria of Test Example 2. This test was conducted in triplicate using 10 adults of diamondback moth per plot. Corrected mortality rate (%)=(Number of hatched larvae in a non-treatment plot−Number of hatched larvae in a treatment plot)/(Number of hatched larvae in a non-treatment plot)×100 [Expression 3]

[2] = test system: Two-spotted spider mite (Tetranychus urticae); assay: Acaricidal action on two-spotted spider mite (kidney bean leaf disk spray); conditions: 500 ppm, adult females, 25° C., two days after treatment
Procedure, shortened: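 Kidney bean leaf disks (2 cm) carrying adult female T. urticae were sprayed with compound dispersion at 500 ppm and held at 25 °C. Dead mites counted 2 days later and corrected mortality calculated against untreated plots; 10 adults per plot, in duplicate.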

[3] = test system: Small brown planthopper (Laodelphax striatellus); assay: Insecticidal test on small brown planthopper (rice seedling dip); conditions: 500 ppm, rice seedlings dipped 30 seconds, ten 3rd-instar larvae, 8 days after inoculation
Source text: Insecticidal Test on Small Brown Planthopper (Laodelphax striatellus)
The benzimidazole compounds represented by the general formula (1) of the present invention or salts thereof were separately dispersed in water and diluted to 500 ppm. Rice plant seedlings (variety: Nihonbare) were dipped in the agrochemical dispersions for 30 seconds. After air-dried, each seedling was put into a separate glass test tube and inoculated with ten 3rd-instar larvae of small brown planthopper, and then the glass test tubes were capped with cotton plugs. At 8 days after the inoculation, survival rates were calculated from the numbers of surviving larvae and dead larvae, the corrected mortality rate was calculated according to the formula shown below, and the insecticidal efficacy was evaluated according to the criteria shown below. Corrected mortality rate (%)=(Survival rate in a non-treatment plot−Survival rate in a treatment plot)/(Survival rate in a non-treatment plot)×100 [Expression 2] Criteria: • A: the corrected mortality rate is 100%. • B: the corrected mortality rate is 90 to 99%. • C: the corrected mortality rate is 80 to 89%. • D: the corrected mortality rate is 50 to 79%.

[4] = test system: Green peach aphid (Myzus persicae); assay: Test for control efficacy on green peach aphid (foliar application on Chinese cabbage); conditions: 500 ppm, foliar application to potted Chinese cabbage, 6 days after application
Source text: Test for Control Efficacy on Green Peach Aphid (Myzus persicae) Chinese cabbage plants were planted in plastic pots (diameter: 8 cm, height: 8 cm), green peach aphids were propagated on the plants, and the number of surviving Green peach aphids in each pot was counted. The benzimidazole compounds represented by the general formula (1) of the present invention or salts thereof were separately dispersed in water and diluted to 500 ppm. The agrochemical dispersions were applied to the foliage of the potted Chinese cabbage plants. After the plants were air-dried, the pots were kept in a greenhouse. At 6 days after the foliar application, the number of surviving Green peach aphids on the Chinese cabbage plant in each pot was counted, the control rate was calculated according to the formula shown below, and the control efficacy was evaluated according to the criteria shown below. Control rate=100−{(T×Ca)/(Ta×C)}×100 [Expression 1] Ta: the number of survivors before the foliar application in a treatment plot T: the number of survivors after the foliar application in a treatment plot Ca: the number of survivors before the foliar application in a non-treatment plot C: the number of survivors after the foliar application in a non-treatment plot Criteria • A: the control rate is 100%. • B: the control rate is 90 to 99%. • C: the control rate is 80 to 89%. • D: the control rate is 50 to 79%.

| Structure (SMILES) | insecticidal efficacy (corrected mortality rate), activity level [1] | acaricidal efficacy (corrected mortality rate), activity level [2] | insecticidal efficacy (corrected mortality rate), activity level [3] | control efficacy (control rate), activity level [4] |
| --- | --- | --- | --- | --- |
| CCS(=O)(=O)n1c(-n2cc(CCc3ccccc3)cn2)nc2ccccc21 [Compound 2-3] | D or higher | D or higher |  |  |
| CCS(=O)(=O)n1c(-n2cc(C(=O)Oc3c(C)cccc3C)c(C(F)(F)F)n2)nc2ccccc21 [Compound 2-29] |  | D or higher | D or higher |  |
| CCS(=O)(=O)n1c(-n2ccc(OCC(F)(F)C(F)(F)F)n2)nc2ccccc21 [Compound 2-38] | D or higher | D or higher |  |  |
| CCS(=O)(=O)n1c(-n2cnc(CCc3ccc(C(F)(F)F)cc3)c2)nc2ccccc21 [Compound 1-11] | D or higher | D or higher |  |  |
| CCc1nn(-c2nc3ccccc3n2S(=O)(=O)CC)cc1C(=O)OC(C)(C)C [Compound 2-49] | D or higher | D or higher |  |  |
| CCS(=O)(=O)n1c(-n2nc(C(F)(F)F)cc2C)nc2ccccc21 [Compound 2-17] |  | D or higher | D or higher |  |
| C=Cc1cn(-c2nc3ccccc3n2S(=O)(=O)CC)nc1C(F)(F)F [Compound 2-21] |  | D or higher | D or higher |  |
| CCS(=O)(=O)n1c(-n2ccc(C(F)(F)F)n2)nc2ccccc21 [Compound 2-12] |  | D or higher | D or higher |  |
| CCS(=O)(=O)n1c(-n2cc(SC(C)C)c(C(F)(F)F)n2)nc2ccccc21 [Compound 2-32] |  | D or higher | D or higher |  |
| CCS(=O)(=O)n1c(-n2cnc(CCc3ccccc3)c2)nc2ccccc21 [Compound 1-9] |  | D or higher | D or higher |  |
| CCS(=O)(=O)n1c(-n2cc(CCc3ccccc3)c(C(F)(F)F)n2)nc2ccccc21 [Compound 2-23] | D or higher | D or higher |  |  |
| CCS(=O)(=O)n1c(-n2cc(C#Cc3ccc(C(F)(F)F)cc3)cn2)nc2ccccc21 [Compound 2-8] |  | D or higher |  | D or higher |
| CCS(=O)(=O)n1c(-n2cnc(C(F)(C(F)(F)F)C(F)(F)F)c2)nc2ccccc21 [Compound 1-22, 1-ethanesulfonyl-2-(4-heptafluoroisopropylimidazol-1-yl)benzimidazole] |  | D or higher | D or higher |  |
| CCS(=O)(=O)n1c(-n2ccc(C(=O)OC(C)(C)C)n2)nc2ccccc21 [Compound 2-43] |  | D or higher |  | D or higher |
| CCS(=O)(=O)n1c(-n2cnc(CCc3ccc(Cl)cc3)c2)nc2ccccc21 [Compound 1-12] |  | D or higher |  | D or higher |
